Assay results from PubChem BioAssay (NCI).
Several values for one entry are separate records, joined by “and”; a condition that tells them apart may be missing. Identical values can stand only once.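 Cells were grown in 96-well plates and exposed to each compound for 48 hours at five concentrations; endpoints were interpolated linearly between bracketing concentrations, or set to the highest concentration if not reached. At the GI50, growth is halved. TGI: concentration producing complete growth inhibition.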

Key:
Assay in all cases: inhibition of tumour cell growth, NCI panel, 48 h
T-47D breast = tested on: T-47D breast
OVCAR-4 ovarian = tested on: OVCAR-4 ovarian
U251 CNS = tested on: U251 CNS
HOP-92 NSCLC = tested on: HOP-92 NSCLC
OVCAR-5 ovarian = tested on: OVCAR-5 ovarian
PC-3 prostate = tested on: PC-3 prostate
BT-549 breast = tested on: BT-549 breast
786-0 renal = tested on: 786-0 renal
MALME-3M melanoma = tested on: MALME-3M melanoma
HCC-2998 colon = tested on: HCC-2998 colon

| SMILES | GI50 (T-47D breast) [µM] | TGI (T-47D breast) | GI50 (OVCAR-4 ovarian) [µM] | TGI (OVCAR-4 ovarian) | GI50 (U251 CNS) [µM] | TGI (U251 CNS) | GI50 (HOP-92 NSCLC) [µM] | TGI (HOP-92 NSCLC) | GI50 (OVCAR-5 ovarian) [µM] | TGI (OVCAR-5 ovarian) | GI50 (PC-3 prostate) [µM] | TGI (PC-3 prostate) | GI50 (BT-549 breast) [µM] | TGI (BT-549 breast) | GI50 (786-0 renal) | TGI (786-0 renal) | GI50 (MALME-3M melanoma) [µM] | TGI (MALME-3M melanoma) | GI50 (HCC-2998 colon) [µM] | TGI (HCC-2998 colon) |
| --- | --- | --- | --- | --- | --- | --- | --- | --- | --- | --- | --- | --- | --- | --- | --- | --- | --- | --- | --- | --- |
| Cc1ccc(C(=O)Nc2ccc(Oc3cc4cnn(C)c4cc3-c3cn[nH]c3)c(F)c2)c(=O)n1-c1ccc(F)cc1 | 7.28 | > 78.8 µM | > 100 | > 100 µM | 32.9 | > 100 µM | 2.34 | > 100 µM | 10.9 | > 100 µM | 16.3 | > 100 µM | 7.05 | > 100 µM | > 100 µM | > 100 µM | 3.35 | > 100 µM | > 100 | > 100 µM |
| Cc1cc(OC2OC(CO)C(O)C(O)C2O)ccc1O (stereo not given) |  | > 100 µM |  | > 100 µM |  | > 100 µM |  | > 100 µM |  | > 100 µM |  | > 100 µM |  | > 100 µM |  | > 100 µM |  | > 100 µM |  | > 100 µM |
| S=C(Sc1ccc(Cl)cc1)Sc1ccc(Cl)cc1 | 1.94 | 5.72 µM | 3.03 | 10.9 µM | 2.64 | 8.92 µM | 1.99 | 5.01 µM | 2.32 | 4.81 µM | 1.58 | 3.34 µM | 1.21 | 3.16 µM | 1.94 µM | 3.6 µM | 2.31 | 4.8 µM | 3.08 | 10.3 µM |
| Cc1ccc2ccc3c4ccccc4ccc3c2c1 | 23 | 74.6 µM | 17 | > 100 µM | 28.3 | > 100 µM | 12.7 | 43.9 µM | 28.8 | 95.6 µM | 30.4 | > 100 µM | 30.9 | > 100 µM | 24.4 µM | 69.8 µM | 22.1 | 54.3 µM | 20.8 | 43.2 µM |
| Nc1ncnc2c1c(-c1ccc(Oc3ccccc3)cc1)nn2CC1SSCC1O (stereo not given) | 0.653 | 1.85 µM | 2.2 | 22.1 µM | 4.31 | 9.66 µM | 1.72 | 8.23 µM | 7.2 | 28.8 µM | 6.23 | 14.9 µM | 7.11 | 17.1 µM | 4.86 µM | 11.2 µM | 0.847 | 3.78 µM | 6.75 | 20.5 µM |
| CCOC(=O)c1cc(C(=O)c2ccc(OC)c(OC)c2)n2c1ccc1ccc3cccnc3c12 | 2.37 | > 100 µM | 5.17 | > 100 µM | 3.61 | 26.9 µM | 6.78 | > 100 µM | 5.32 | > 100 µM | 0.96 | > 100 µM | 1.94 | > 100 µM | 2.34 µM | > 100 µM | 1.24 | > 100 µM | 4.08 | > 100 µM |
| C[C@]12CCc3nc(Nc4ccc(O)cc4)sc3C1=CC[C@@H]1[C@@H]2CC[C@]2(C)/C(=N/NC(N)=S)CC[C@@H]12 | 1.51 | 3.57 µM | 1.6 | 3.43 µM | 1.29 | 2.6 µM | 1.71 | 4.2 µM | 1.98 | 4.8 µM | 1.58 | 5.28 µM | 1.47 | 3.99 µM | 1.64 µM | 3.09 µM | 1.12 | 2.38 µM | 1.89 | 4.3 µM |
| OCc1ccc(-c2ccc(-c3ccc(CO)o3)o2)o1 | 22.7 | > 100 µM | > 41.3 | > 100 µM | 39.1 | > 100 µM | > 49.6 | > 100 µM | 0.641 | 3 µM | > 100 | > 100 µM | > 100 | > 100 µM | 35.3 µM | > 100 µM | 8.22 | 69.6 µM | > 82 | > 100 µM |
| N=C(N)n1cc(/C=N/N=C(N)N)cn1 |  | > 100 µM |  | > 100 µM |  | > 100 µM |  | > 100 µM |  | > 100 µM |  | > 100 µM |  | > 100 µM |  | > 100 µM |  | > 100 µM |  | > 100 µM |
| O=C1Nc2ccc(-c3cccnc3)cc2/C1=C/c1cc(Br)c(O)c(Br)c1 | 10.6 | > 25 µM | 14.8 | > 25 µM | 6.11 | > 25 µM | 8.32 | > 25 µM | 15.6 | > 25 µM | 9.05 | > 25 µM | 6.05 | > 18.9 µM | 7.18 µM | > 25 µM | 3.96 | 23.9 µM | 8.58 | > 25 µM |
| COC(=O)c1ccc(NC(N)=NCCC(C)(C)c2ccc(C(F)(F)F)cc2)nc1 | 1.62 | 4.71 µM | 1.71 | 9.18 µM | 2.01 | 3.89 µM | 5.54 | 23.8 µM | 2.98 | 13.5 µM | 3.91 | 15.5 µM | 4.85 | 18.1 µM | 7.64 µM | 28.2 µM | 1.7 | 3.37 µM | 1.79 | 3.64 µM |
| O=C1c2cccc3c(N4CCOCC4)ccc(c23)C(=O)N1CCN1CCN(CCCCCN2CCN(CCN3C(=O)c4cccc5c(N6CCOCC6)ccc(c45)C3=O)CC2)CC1 | > 100 | > 100 µM | > 100 | > 100 µM | > 100 | > 100 µM | 76.6 | > 100 µM | > 100 | > 100 µM | > 100 | > 100 µM | > 100 | > 100 µM | 55.8 µM | > 100 µM | > 100 | > 100 µM | 17.5 | 65.5 µM |
| CCc1ccc(Oc2c(-c3ccc(OCc4ccc(Cl)cc4)cc3O)nn(C)c2C(F)(F)F)cc1 | 0.248 | 0.936 µM | 0.547 | 2.33 µM | 0.357 | 1.36 µM | 0.324 | 1.77 µM | 1.75 | 3.85 µM | 0.358 | 1.68 µM | 1.56 | 3.34 µM | 1.22 µM | 2.87 µM | 1.14 | 2.6 µM | 2.44 | 9.62 µM |
| CCN(CC)CCCC(Nc1c2ccc(Cl)cc2nc2ccc(OC)cc12)c1ccc(Cl)cc1 (stereo not given) | 1.85 | 3.96 µM | 1.13 | 3.17 µM | 0.579 | 1.83 µM | 1.15 | 2.81 µM | 1.74 | 3.36 µM | 1.55 | 3.04 µM | 1.7 | 3.47 µM | 1.29 µM | 2.91 µM | 1.88 | 3.55 µM | 1.47 | 3.01 µM |
| CC[n+]1c(-c2ccccc2)c2cc(N)ccc2c2ccc(N)cc21 | 0.323 | 2.91 µM and 15 µM | 0.705 | 3.99 µM and 29.5 µM and 36 µM | 0.399 | 10.2 µM and 20.7 µM | 1.24 | 10.6 µM and 14.6 µM | 5.67 | 57.6 µM and > 100 µM | 1.97 | 17.5 µM and 26.5 µM | 0.831 | 3.01 µM and 3.87 µM | 1.37 µM and 1.16 µM and 3.57 µM | 13.6 µM and 12.7 µM and 26.1 µM | 0.631 | 2.9 µM and 6.43 µM | 1.22 | 3.31 µM and 16.5 µM and 19.8 µM |
| O=C(CCCCN1CCN(CCCCC(=O)Nc2ccccc2C#C/C=C\C#Cc2ccccc2C(F)(F)F)CC1)Nc1ccccc1C#C/C=C\C#Cc1ccccc1C(F)(F)F | 13.2 | 29.2 µM | 16.2 | 49.5 µM | 9.01 | 18.9 µM | 4.14 | 11.5 µM | 14.4 | > 50 µM | 13.9 | > 50 µM | 8.94 | 17.4 µM | 9.8 µM | 18.3 µM | 12.2 | 29.5 µM | 9.14 | 17.5 µM |
| CCOC(=O)[C@@H](C)C[C@H](Cc1ccccc1)NC(=O)c1csc([C@@H](C[C@H](C(C)C)N(C)C(=O)CNC(=O)[C@H]2CCCCN2C)OC(C)=O)n1 | 0.59 | > 14.3 µM | 1.3 | > 14.3 µM | 1 | > 14.3 µM | 0.254 | 2.63 µM | 3.58 | > 14.3 µM | 0.508 | > 14.3 µM | 0.891 | > 14.3 µM | 1.37 µM | > 14.3 µM | 0.601 | > 14.3 µM | 0.795 | > 14.3 µM |
